From patent US8993781B2, “Fluorescent boron-substituted dipyrromethenes and use thereof for diagnosis” (Centre National de la Recherche Scientifique, priority 2008, dated 2015) come the findings set out here.

The test system of one assay is PC12 cells. The assay can be described thus: Spectral index of the labeled amyloid peptide on PC12 cells preincubated with unlabeled beta-amyloid peptide. Type of assay: cell-based, rat. The settings on record: PC12 cells preincubated 12 hours with 100 or 250 nM unlabeled peptide, FIG. 5, 4 independent experiments in triplicate. As to the method: PC12 cells (derived from male rat medullo-adrenal gland tumor) are inoculated into glass-bottomed Petri dishes previously treated with collagen and polyornithine. They are cultured for 7 days in an atmosphere containing 5% of CO2 at 37° C. in RPMI 1640 medium containing glutamine and supplemented with 10% of horse serum, 5% of fetal calf serum, 50 U/mL of penicillin and 50 μg/mL of streptomycin. To induce the differentiation of the cells, 50 ng/mL of murine neurotrophic growth factor (NGF) 2.5S are added to the medium 24 hours after the inoculation.
The day before the measurement, unlabeled beta-amyloid peptide 1-42 of SEQ. ID. No.: 1 or the corresponding unlabeled reverse peptide (42-1) of SEQ ID No.: 2 is added at different concentrations lying between 10 and 1000 nmol·L^−1.
The following day, this preparation is washed 3 times with Krebs medium at ambient temperature and placed on an inverted microscope coupled with a spectro-fluorimeter. A fluorescence spectrum (excitation 480 nm; emission 495-600 nm) of the base line is recorded before the addition of the labeled amyloid peptide (250 nmol·L^−1). A second fluorescence spectrum is recorded after 10 minutes of incubation.
The base line spectrum is subtracted from the fluorescence spectrum of the labeled amyloid peptide. […] The ratio of the amplitude (measured graphically or else with the deconvolution software) of the Gaussian curves centered respectively at 525 nm and 540 nm defines a spectral index describing the distribution of the spectrum
The PC12 cells are preincubated for 12 hours in the presence of unlabeled beta-amyloid peptide 1-42 or 42-1 then rinsed before being placed under a microscope coupled to a spectrofluorimeter. A first spectrum (base line) is recorded.
Next, the labeled beta-amyloid peptide is added. A spectrum is recorded 10 minutes after the addition of the fluorescent compound.
The spectral index is the ratio between the amplitude of the first and that of the second Gaussian calculated by deconvolution (see FIG. 4).

A further assay deals with rat erythrocytes. Nature of the assay: Spectral index of the labeled amyloid peptide on rat erythrocytes preincubated with unlabeled beta-amyloid peptide. To be noted: rat erythrocytes incubated 2 hours at 37° C. with unlabeled peptide (10-1000 nmol·L^-1); FIG. 6. Type of assay: cell-based. As to the method: A sample of rat blood (1 to 3 ml) is collected in a heparinized tube. The sample is diluted with Krebs medium then centrifuged three times discarding the buffer layer (“buffy coat”). The erythrocytes obtained are next incubated at 37° C. for 2 hours in the presence of the unlabeled beta-amyloid peptide 1-42 or the corresponding unlabeled reverse peptide (42-1) at various concentrations (10-1000 nmol·L^−1). After an additional washing, the cells are placed in a spectro-fluorimeter and a fluorescence spectrum (excitation 480 nm; emission 495-600 nm) of the base line is recorded before the addition of the labeled amyloid peptide (250 nmol·L^−1). A second fluorescence spectrum is recorded after 10 minutes of incubation in the presence of the labeled amyloid peptide.
The base line spectrum is subtracted from the fluorescence spectrum of the labeled beta-amyloid peptide. The spectrum obtained is broken down into 4 component Gaussian curves by deconvolution and non-linear regression. The ratio of the amplitude of the Gaussian centered around 510 nm to the amplitude of the Gaussian centered around 530 nm is calculated. Its value varies as a function of the concentration of unlabeled beta-amyloid peptide 1-42 in the presence of which the cells were incubated as illustrated in FIG. 6.

Regarding “beta-amyloid peptide 1-42: unlabeled human beta-amyloid peptide 1-42 of SEQ ID No.: 1”, the “change in the value of the spectral index of the labeled amyloid peptide induced by preincubation with unlabeled peptide” value in the assay on PC12 cells was “increases with the increase in concentration of peptide preincubated”. Also, in the assay on rat erythrocytes, the “value of the spectral index (ratio of Gaussian amplitudes around 510 nm and 530 nm) of the labeled amyloid peptide after preincubation with unlabeled peptide” value was “increases as a function of the concentration”.
Regarding “beta-amyloid peptide 42-1: corresponding unlabeled reverse peptide (42-1) of SEQ ID No.: 2, inactive (AIVVGGVMLGIIAGKNSGVDEAFFVLKQHHVEYGSDHRFEAD; listed as Homo sapiens)”, the “change in the value of the spectral index of the labeled amyloid peptide induced by preincubation with unlabeled peptide” value is “no significant effect” in the assay on PC12 cells and “absence of change” in the assay with PC12 cells (listed as β-amyloid peptide 42-1).
